Data: US10988462B2, “Pyrazole compounds substituted with heteroaryl and pharmaceutical use thereof” (Japan Tobacco Inc., priority 2018, dated 2021)

Experiments:
[1] = tested on: Salmonella typhimurium TA98; experiment: Ames test (reverse mutation test), pre-incubation method, strain TA98; settings: for Number of revertant colonies TA98: dose 62 μg/plate
Procedure: (§1) Ames Test (Reverse Mutation Test)
(§2) Metabolites 1 to 3 and Metabolites A to E were each tested herein. The purpose of this test is to evaluate the potential of each metabolite to induce reverse mutations in the standard strains of Salmonella typhimurium (TA98, TA1537, TA100, and TA1535) and Escherichia coli (WP2uvrA), in either the presence or absence of a rat liver metabolic activation system (S9 mix).
(§3) The solvent used herein was dimethyl sulfoxide (DMSO, 100 μL/plate).
(§4) The test was performed by the pre-incubation method with or without S9 mix. When the test was performed without S9 mix, sodium phosphate buffer solution (pH 7.4) was added.
(§5) 0.5 mL of S9 mix or 0.5 mL of 0.1 mol/L sodium phosphate buffer solution (pH 7.4), and 0.1 mL of the bacterial culture solution were added to a test tube containing 0.1 mL of the negative control formulation (DMSO alone), the metabolite, or the positive control formulation. The mixtures were pre-incubated at 37° C. for 20 minutes while shaking. After the pre-incubation period, 2 mL of top agar were added and the mixtures were vortex-mixed and seeded onto plates. Two plates per treatment were used. Each plate was incubated at 37±1° C. for 48 hours or more and the revertant colonies were counted. The mean number of revertant colonies for each treatment plate was then calculated. The presence or absence of growth inhibition due to any antibacterial effect of the test article and precipitation of the test article was observed grossly or under a stereomicroscope. […] Evaluation was based on mean values with no statistical comparisons being used.

[2] = tested on: Salmonella typhimurium TA1537; experiment: Ames test (reverse mutation test), pre-incubation method, strain TA1537; format: cell-based
Procedure: as §1, §2, §3, §4, §5

[3] = tested on: Salmonella typhimurium TA100; experiment: Ames test (reverse mutation test), pre-incubation method, strain TA100; format: cell-based
Procedure: as §1, §2, §3, §4, §5

[4] = tested on: Escherichia coli WP2uvrA; experiment: Ames test (reverse mutation test), pre-incubation method, strain WP2uvrA; format: cell-based
Source text: as §1
Two plates per treatment were used.

Nc1cc(-c2cc(F)cc(OC(F)(F)F)c2)n(-c2cncc(C(F)(F)F)c2)n1 [Metabolite 3]
Number of revertant colonies TA98 ([1]; S9 mix +): 38
Number of revertant colonies TA98 ([1]; S9 mix −): 29
Number of revertant colonies TA1537 ([2]; S9 mix +, dose 6.9 μg/plate): 13
Number of revertant colonies TA1537 ([2]; S9 mix +, dose 21 μg/plate): 11
Number of revertant colonies TA1537 ([2]; S9 mix +, dose 62 μg/plate): 12
Number of revertant colonies TA1537 ([2]; S9 mix +, dose 185 μg/plate): 12
Number of revertant colonies TA1537 ([2]; S9 mix +, dose 556 μg/plate): 8
Number of revertant colonies TA1537 ([2]; S9 mix +, dose 1667 μg/plate): 3
Number of revertant colonies TA1537 ([2]; S9 mix +, dose 5000 μg/plate): 1
Number of revertant colonies TA1537 ([2]; S9 mix −, dose 6.9 μg/plate): 8
Number of revertant colonies TA1537 ([2]; S9 mix −, dose 21 μg/plate): 7
Number of revertant colonies TA1537 ([2]; S9 mix −, dose 62 μg/plate): 8
Number of revertant colonies TA1537 ([2]; S9 mix −, dose 185 μg/plate): 7
Number of revertant colonies TA1537 ([2]; S9 mix −, dose 556 μg/plate): 2
Number of revertant colonies TA1537 ([2]; S9 mix −, dose 1667 μg/plate): 3
Number of revertant colonies TA1537 ([2]; S9 mix −, dose 5000 μg/plate): 2
Number of revertant colonies TA100 ([3]; S9 mix +, dose 6.9 μg/plate): 134
Number of revertant colonies TA100 ([3]; S9 mix +, dose 21 μg/plate): 123
Number of revertant colonies TA100 ([3]; S9 mix +, dose 62 μg/plate): 108
Number of revertant colonies TA100 ([3]; S9 mix +, dose 185 μg/plate): 103
Number of revertant colonies TA100 ([3]; S9 mix +, dose 556 μg/plate): 99
Number of revertant colonies TA100 ([3]; S9 mix +, dose 1667 μg/plate): 67
Number of revertant colonies TA100 ([3]; S9 mix +, dose 5000 μg/plate): 43
Number of revertant colonies TA100 ([3]; S9 mix −, dose 6.9 μg/plate): 88
Number of revertant colonies TA100 ([3]; S9 mix −, dose 21 μg/plate): 91
Number of revertant colonies TA100 ([3]; S9 mix −, dose 62 μg/plate): 93
Number of revertant colonies TA100 ([3]; S9 mix −, dose 185 μg/plate): 92
Number of revertant colonies TA100 ([3]; S9 mix −, dose 556 μg/plate): 59
Number of revertant colonies TA100 ([3]; S9 mix −, dose 1667 μg/plate): 29
Number of revertant colonies TA100 ([3]; S9 mix −, dose 5000 μg/plate): 12
Number of revertant colonies WP2uvrA ([4]; S9 mix +, dose 6.9 μg/plate): 22
Number of revertant colonies WP2uvrA ([4]; S9 mix +, dose 21 μg/plate): 22
Number of revertant colonies WP2uvrA ([4]; S9 mix +, dose 62 μg/plate): 21
Number of revertant colonies WP2uvrA ([4]; S9 mix +, dose 185 μg/plate): 21
Number of revertant colonies WP2uvrA ([4]; S9 mix +, dose 556 μg/plate): 18
Number of revertant colonies WP2uvrA ([4]; S9 mix +, dose 1667 μg/plate): 21
Number of revertant colonies WP2uvrA ([4]; S9 mix +, dose 5000 μg/plate): 19
Number of revertant colonies WP2uvrA ([4]; S9 mix −, dose 6.9 μg/plate): 23
Number of revertant colonies WP2uvrA ([4]; S9 mix −, dose 21 μg/plate): 15
Number of revertant colonies WP2uvrA ([4]; S9 mix −, dose 62 μg/plate): 23
Number of revertant colonies WP2uvrA ([4]; S9 mix −, dose 185 μg/plate): 20
Number of revertant colonies WP2uvrA ([4]; S9 mix −, dose 556 μg/plate): 22
Number of revertant colonies WP2uvrA ([4]; S9 mix −, dose 1667 μg/plate): 19
Number of revertant colonies WP2uvrA ([4]; S9 mix −, dose 5000 μg/plate): 14

CC(C)(OCc1cc(F)cc(-c2cc(N)nn2-c2ccc(F)cc2)c1)C(F)(F)F [Metabolite A, reference compound]
potential to induce reverse mutations ([1]; TA98, in the presence of S9 mix): had potential to induce reverse mutations
potential to induce reverse mutations ([2]; TA1537, in the presence of S9 mix): had potential to induce reverse mutations
